Data: patent publication US20180009797A1, “AZA-ARYL 1H-PYRAZOL-1-YL BENZENE SULFONAMIDES” (ChemoCentryx, Inc., priority 2016, published 2018)
pIC50: −log10 of the molar value.

These compounds were tested against T1, CCR(9) (Homo sapiens, UniProt P51686) (assay: calcium mobilization assay (FLIPR, MOLT-4 cells, hTECK)). Settings: read-out: CCR(9) Ca^2+.
T1 construct: CCR(9)-expressing cells such as T cell line MOLT-4 cells; host or cells: MOLT-4 T cell line
T1 sequence (P51686 1-369): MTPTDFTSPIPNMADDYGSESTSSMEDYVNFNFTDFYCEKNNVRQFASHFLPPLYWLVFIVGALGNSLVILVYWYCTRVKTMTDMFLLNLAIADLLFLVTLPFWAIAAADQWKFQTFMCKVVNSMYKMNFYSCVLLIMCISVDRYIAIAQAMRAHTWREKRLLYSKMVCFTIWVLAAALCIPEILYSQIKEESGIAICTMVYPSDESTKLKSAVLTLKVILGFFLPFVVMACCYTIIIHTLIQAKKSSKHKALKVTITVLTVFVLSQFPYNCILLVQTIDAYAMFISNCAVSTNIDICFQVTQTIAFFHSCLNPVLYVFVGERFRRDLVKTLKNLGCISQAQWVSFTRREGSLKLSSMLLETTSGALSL
Type: cell-based
Method: In calcium signaling assays used to determine the ability of a compound to interfere with binding between a chemokine receptor and a known chemokine ligand, chemokine receptor-expressing cells (CCR(9)-expressing cells such as T cell line MOLT-4 cells) are first incubated with a compound of interest, such as a potential chemokine antagonist, at increasing concentrations. The cell number can be from 10^5 to 5×10^6 cells per well in a 96-well microtiter plate. The concentration of the compound being tested may range from 0 to 100 μM. After a period of incubation (which can range from 5 to 60 minutes), the treated cells are placed in a Fluorometric Imaging Plate Reader (FLIPR®) (available from Molecular Devices Corp., Sunnyvale, Calif.) according to the manufacturer's instruction. The FLIPR® system is well known to those skilled in the art as a standard method of performing assays. The cells are then stimulated with an appropriate amount of the chemokine ligand (TECK for CCR(9)) at 5-100 nM final concentration, and the signal of intracellular calcium increase (also called calcium flux) is recorded. The efficacy of a compound as an inhibitor of binding between the chemokine and the ligand can be calculated as an IC50 (the concentration needed to cause 50% inhibition in signaling) or IC90 (at 90% inhibition).
MOLT-4 cells were obtained from the American Type Culture Collection (Manassas, Va.) and cultured in RPMI tissue culture medium supplemented with 10% fetal calf serum (FCS) in a humidified 5% CO2 incubator at 37° C. Recombinant human chemokine proteins TECK was obtained from R&D Systems (Minneapolis, Minn.). ChemoTX® chemotaxis microchambers were purchased from Neuro Probe (Gaithersburg, Md.). CyQUANT® cell proliferation kits were purchased from Molecular Probes (Eugene, Oreg.). Calcium indicator dye Fluo-4 AM was purchased from Molecular Devices (Mountain View, Calif.).
A cytoplasmic calcium mobilization assay was used to determine the efficacy of potential receptor antagonists at blocking the signals mediated through chemokine receptors, such as CCR(9). This assay was routinely performed using the Fluorescent Imaging Plate Reader (FLIPR, Molecular Devices). MOLT-4 cells were labeled with the fluorescent-indicator dye Fluo-4 (Molecular Devices) according to the manufacturer's directions. After labeling, the cells were collected by centrifugation (400×g for 5 min at room temperature) and resuspended in HBSS to a cell density of 2.5×10^6 cells/mL. Test compounds were prepared in 100% DMSO at 100× the final concentration; generally, a range of concentrations of each compound were tested, with final concentrations from 0.1 nM to 10,000 nM. Labeled cells (300 μL) were mixed with compound or an equal volume of DMSO (3 μL) in a 96-well plate; after thorough mixing, 50 μL of this cell/compound mixture was added to each of four wells of a 384-well FLIPR plate. The chemokine agonist (i.e., hTECK), prepared in HBSS at a 5× concentration of the previously determined EC^50 concentration, was added to each well and resulting changes in the fluorescent intensity, indicative of chemokine receptor-mediated signaling, were recorded on the FLIPR.

| pIC50 | SMILES |
| --- | --- |
| > 7.00 | Cc1cc(NS(=O)(=O)c2ccc(C(C)(C)C)cc2)n(-c2cccc3nccc(C)c23)n1 |
| > 7.00 | CCc1ccc(S(=O)(=O)Nc2cc(C)nn2-c2cccc3ncccc23)cc1 |
| > 7.00 | CC(C)c1ccc(S(=O)(=O)Nc2cc(C(C)(F)F)nn2-c2cccc3ncccc23)cc1 |
| > 7.00 | CC(C)(C)c1ccc(S(=O)(=O)Nc2cc(CC#N)nn2-c2cccc3ncccc23)cc1 |
| > 7.00 | Cc1cnc2c(Cl)ccc(-n3nc(C)cc3NS(=O)(=O)c3ccc(C(C)(C)C)cc3)c2c1 |
| > 7.00 | Cc1cc(NS(=O)(=O)c2ccc(C(C)(C)C)cc2)n(-c2ccc3ccccc3c2)n1 |
| 6.00 to 7.00 | CC(C)c1cc(NS(=O)(=O)c2ccc(C(C)(C)C)cc2)n(-c2cccc3ncccc23)n1 |
| > 7.00 | Cc1cc(NS(=O)(=O)c2ccc(C(C)(C)C)cc2)n(-c2ccnc3ccc(F)cc23)n1 |
| < 6.00 | CC(C)(C)c1ccc(S(=O)(=O)Nc2cc(C(F)(F)F)nn2-c2cccc3cccnc23)cc1 |
| > 7.00 | Cc1cc(NS(=O)(=O)c2ccc(C(C)(C)C)cc2)n(-c2ccc(Cl)c3nccc(C)c23)n1 |
| > 7.00 | Cc1cc(NS(=O)(=O)c2ccc3c(c2)CCC3(C)C)n(-c2cccc3ncccc23)n1 |
| 6.00 to 7.00 | Cc1cc(NS(=O)(=O)c2ccc(OC(C)(C)C)cc2)n(-c2cccc3ncccc23)n1 |
| > 7.00 | CC(C)Oc1ccc(S(=O)(=O)Nc2cc(C(C)(F)F)nn2-c2cccc3ncccc23)cc1 |
| > 7.00 | Cc1cc(NS(=O)(=O)c2ccc(C(C)(C)C)cc2)n(-c2cc3ccccc3cn2)n1 |
| > 7.00 | Cc1cc(NS(=O)(=O)c2ccc(N3CCOCC3)c(F)c2)n(-c2cccc3ncccc23)n1 |
| > 7.00 | CC(C)(C)c1ccc(S(=O)(=O)Nc2cc(CO)nn2-c2cccc3ncccc23)cc1 |
| > 7.00 | Cc1cc(NS(=O)(=O)c2ccc3c(c2)CC(C)(C)O3)n(-c2cccc3ncccc23)n1 |
| > 7.00 | CCOc1ccc(S(=O)(=O)Nc2cc(C)nn2-c2cccc3ncccc23)cc1 |
| > 7.00 | CC(C)(C)c1ccc(S(=O)(=O)Nc2c3c(nn2-c2cccc4cnccc24)CCC3)cc1 |
| > 7.00 | CC(C)(C)c1ccc(S(=O)(=O)Nc2cc(C(C)(F)F)nn2-c2cccc3ncccc23)cc1 |
| > 7.00 | Cc1cc(NS(=O)(=O)c2ccc(C(C)(C)C)cc2)n(-c2ccc(N(C)C)c3ccccc23)n1 |
| > 7.00 | Cc1cc(NS(=O)(=O)c2ccc3c(c2)CCC(C)(C)O3)n(-c2cccc3ncccc23)n1 |

| pIC50 | SMILES |
| --- | --- |
| > 7.00 | Cc1cc(NS(=O)(=O)c2ccc(C(C)(C)O)cc2)n(-c2cccc3ncccc23)n1 |
| < 6.00 | Cc1cc(NS(=O)(=O)c2ccc(C(C)(C)C)cc2)n(-c2cccc3cnncc23)n1 |
| > 7.00 | COc1cc(C(C)(C)C)ccc1S(=O)(=O)Nc1cc(C)nn1-c1cccc2ncccc12 |
| > 7.00 | Cc1cc(NS(=O)(=O)c2ccc(C3(C#N)CC3)cc2)n(-c2cccc3ncccc23)n1 |
| 6.00 to 7.00 | COc1ccc(S(=O)(=O)Nc2cc(C)nn2-c2cccc3ncccc23)cc1 |
| > 7.00 | COc1ccc2ncccc2c1-n1nc(C)cc1NS(=O)(=O)c1ccc(C(C)(C)C)cc1 |
| > 7.00 | CC(C)(C)c1ccc(S(=O)(=O)Nc2cc(C(F)(F)F)nn2-c2ncnc3ccccc23)cc1 |
| 6.00 to 7.00 | CC(C)(C)c1ccc(S(=O)(=O)Nc2cc(C(N)=O)nn2-c2cccc3ncccc23)cc1 |
| > 7.00 | Cc1cc(NS(=O)(=O)c2ccc(C(C)(C)C)cc2)n(-c2cccc3[nH]c(=O)ccc23)n1 |
| > 7.00 | CC(C)(C)c1ccc(S(=O)(=O)Nc2cc(C3CC3)nn2-c2cccc3ncccc23)cc1 |
| 6.00 to 7.00 | Cc1cnc2cccc(-n3nc(C)cc3NS(=O)(=O)c3ccc(C(C)(C)C)cc3)c2c1 |
| > 7.00 | Cc1cc(NS(=O)(=O)c2ccc(C(C)(C)C)cc2)n(-c2c(C)ccc3ncccc23)n1 |
| > 7.00 | Cc1cc(NS(=O)(=O)c2ccc(C(C)(C)C)cc2)n(-c2ncc(C)c3ccccc23)n1 |
| > 7.00 | Cc1cc(NS(=O)(=O)c2ccc(C(C)(C)C)cc2)n(-c2ncnc3ccccc23)n1 |
| > 7.00 | Cc1nn(-c2cccc3ncccc23)c(NS(=O)(=O)c2ccc(C(C)(C)C)cc2)c1F |
| > 7.00 | Cc1cc(NS(=O)(=O)c2ccc(N3CCOCC3)cc2)n(-c2cccc3ncccc23)n1 |
| > 7.00 | Cc1cc(NS(=O)(=O)c2ccc(C(C)(C)C)cc2)n(Cc2cccc3cnccc23)n1 |
| 6.00 to 7.00 | Cc1cc(NS(=O)(=O)c2ccc(C(C)(C)C)cc2)n(-c2ccc3ccccc3n2)n1 |
| > 7.00 | Cc1cc(NS(=O)(=O)c2ccc(C(C)(C)C)cc2)n(-c2ccc3ncccc3c2)n1 |
| 6.00 to 7.00 | Cc1cc(NS(=O)(=O)c2ccc(C(C)(C)C)cc2C)n(-c2cccc3ncccc23)n1 |
| 6.00 to 7.00 | Cc1cc(NS(=O)(=O)c2ccc(C(C)(C)C)cc2)n(Cc2cccc3ncccc23)n1 |
